Here are results for 10 compounds from US8962596B2 (Array BioPharma Inc., priority 2010, dated 2015).

As usually defined, the IC50 is the concentration that gives 50% inhibition. Read a high IC50 as lower potency.

Format in all cases: biochemical
The target of test [1] is T1, JAK1 (Homo sapiens, UniProt P23458).
T1 construct: purchased Invitrogen Corporation, Carlsbad, Calif; PV4775
Nature of the test: JAK1 Inhibition Assay (Omnia kinase fluorescence peptide substrate assay). The note with it: averaged IC50 ranges; assay of Example B; 40 μM (Km app) or 1 mM ATP, 15 nM JAK1. The text has this: (§1) The assays described in Examples A, B, C and D for the determination of Tyk2, JAK1, JAK2 and JAK3 kinase activity, respectively, utilized the Omnia® Kinase fluorescence peptide substrate-based technology (Invitrogen). The specific components of the assay mixture are described in Examples A, B, C and D. In these assays, Mg^2+ is chelated upon phosphorylation of the Omnia peptide by the kinase to form a bridge between the chelation-enhanced fluorophore Sox and the phosphate, resulting in an increase in fluorescence emission at 485 nm when excited at […]. The reactions were therefore read at excitation 360 nm and emission was measured at 485 nm every 50 seconds for 45 minutes using a PerkinElmer EnVision Multilabel Plate Reader.
(§2) The final buffer conditions for Tyk2, JAK1, JAK2, and JAK3 assays were as follows: 25 mM HEPES, pH 7.4, 10 mM MgCl2, 0.01% Triton X-100 and 1 mM DTT.
(§3) Compounds were prepared at 50× the final concentration in DMSO by conducting 3-fold serial dilutions from a 500-μM intermediate dilution to give a 10-point dosing curve having a high dose of 10 μM. Two-μL aliquots of these were transferred to a fresh plate for a ten-fold intermediate dilution with assay buffer. Five-μL aliquots of the diluted compounds were then transferred to 20-μL of assay mixtures described in Examples A, B, C and D for a final concentration of DMSO of 2%. A standard or reference compound was typically included on each assay plate to validate that plate. For each plate, percent of control (POC) values were calculated for each well according to the following equation:
(§4) where Xmax=Average Uninhibited Controls • Xmin=Average Background IC50's were estimated from the POC's using a standard 4-parameter logistic model:
(§5) where • A=Minimum Y (Bottom Asymptote) • B=Maximum Y (Top Asymptote) • C=EC50 • D=Slope Factor • X=Compound Concentration (nM) • Y=POC
(§6) The IC50 is defined as the concentration of inhibitor at which the POC equals 50 for the fitted curve.
Compounds of Formula I were screened for their ability to inhibit JAK1 using the general enzyme inhibition assay method, in which the assay mixture contained 40 μM (Km app) or 1 mM ATP, 8 μM Omnia® Y12 peptide (Catalog #IVGN KPZ3121C; Invitrogen Corporation, Carlsbad, Calif.) and 15 nM JAK1 in a total volume of 20 μL. JAK1 was purchased from Invitrogen Corporation, Carlsbad, Calif. (catalog #IVGN PV4775).

For test [2], the target named is T2, JAK2 (Homo sapiens, UniProt O60674).
T2 construct: purchased Invitrogen Corporation, Carlsbad, Calif; PV4288
Briefly: JAK2 Inhibition Assay (Omnia kinase fluorescence peptide substrate assay). The note with it: averaged IC50 ranges; assay of Example C; 25 μM (Km app) or 1 mM ATP, 5 nM JAK2.
From the text: as §1, §2, §3, §4, §5, §6
Compounds of Formula I were screened for their ability to inhibit JAK2 using the general enzyme inhibition assay method, in which the assay mixture contained 25 μM (Km app) or 1 mM ATP, 10 μM Omnia® Y7 peptide (Catalog #IVGN KNZ3071C, Invitrogen Corporation, Carlsbad, Calif.) and 5 nM JAK2 in a total volume of 20 μL. JAK2 was purchased from Invitrogen Corporation, Carlsbad, Calif. (catalog #IVGN PV4288).

Test [3] addresses T3, Human Tyk2 kinase domain (Homo sapiens, UniProt P29597).
T3 construct: comprising amino acids 886 to 1187 with 10 additional histidine residues; 10xHis (histidine tag) (C, cleaved yes); made in house
T3 sequence (P29597 886-1187): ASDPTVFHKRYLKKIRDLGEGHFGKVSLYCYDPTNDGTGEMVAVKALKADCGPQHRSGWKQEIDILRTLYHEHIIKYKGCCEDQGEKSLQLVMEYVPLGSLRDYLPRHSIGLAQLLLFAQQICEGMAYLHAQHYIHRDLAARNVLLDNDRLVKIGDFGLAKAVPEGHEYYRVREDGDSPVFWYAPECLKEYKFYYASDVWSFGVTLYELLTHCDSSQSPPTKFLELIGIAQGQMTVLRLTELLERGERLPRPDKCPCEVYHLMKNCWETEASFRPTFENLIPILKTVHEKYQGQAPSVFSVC
Briefly: Tyk2 Inhibition Assay (Omnia kinase fluorescence peptide substrate assay). The note with it: averaged IC50 ranges; assay of Example A; 10 μM (Km app) or 1 mM ATP, 2 nM Tyk2.
From the text: as §1, §2, §3, §4, §5, §6
Compounds of Formula I were screened for their ability to inhibit Tyk2 using the general enzyme inhibition assay method, in which the assay mixture contained 10 μM (Km app) or 1 mM ATP, 8 μM Omnia® Y12 peptide (Catalog #IVGN KPZ3121C; Invitrogen Corporation, Carlsbad, Calif.) and 2 nM Tyk2 in a total volume of 20 μL. Human Tyk2 kinase domain, comprising amino acids 886 to 1187 with 10 additional histidine residues (histidine tag) on the carboxy terminus, was expressed and purified from bacculovirus in-house at Array BioPharma Inc. (Boulder, Colo.). The histidine tag was cleaved after purification using standard conditions.

The target of test [4] is T4, JAK3 (Homo sapiens, UniProt P52333).
T4 construct: purchased Invitrogen Corporation, Carlsbad, Calif; PV4080
T4 sequence (P52333 1-1124): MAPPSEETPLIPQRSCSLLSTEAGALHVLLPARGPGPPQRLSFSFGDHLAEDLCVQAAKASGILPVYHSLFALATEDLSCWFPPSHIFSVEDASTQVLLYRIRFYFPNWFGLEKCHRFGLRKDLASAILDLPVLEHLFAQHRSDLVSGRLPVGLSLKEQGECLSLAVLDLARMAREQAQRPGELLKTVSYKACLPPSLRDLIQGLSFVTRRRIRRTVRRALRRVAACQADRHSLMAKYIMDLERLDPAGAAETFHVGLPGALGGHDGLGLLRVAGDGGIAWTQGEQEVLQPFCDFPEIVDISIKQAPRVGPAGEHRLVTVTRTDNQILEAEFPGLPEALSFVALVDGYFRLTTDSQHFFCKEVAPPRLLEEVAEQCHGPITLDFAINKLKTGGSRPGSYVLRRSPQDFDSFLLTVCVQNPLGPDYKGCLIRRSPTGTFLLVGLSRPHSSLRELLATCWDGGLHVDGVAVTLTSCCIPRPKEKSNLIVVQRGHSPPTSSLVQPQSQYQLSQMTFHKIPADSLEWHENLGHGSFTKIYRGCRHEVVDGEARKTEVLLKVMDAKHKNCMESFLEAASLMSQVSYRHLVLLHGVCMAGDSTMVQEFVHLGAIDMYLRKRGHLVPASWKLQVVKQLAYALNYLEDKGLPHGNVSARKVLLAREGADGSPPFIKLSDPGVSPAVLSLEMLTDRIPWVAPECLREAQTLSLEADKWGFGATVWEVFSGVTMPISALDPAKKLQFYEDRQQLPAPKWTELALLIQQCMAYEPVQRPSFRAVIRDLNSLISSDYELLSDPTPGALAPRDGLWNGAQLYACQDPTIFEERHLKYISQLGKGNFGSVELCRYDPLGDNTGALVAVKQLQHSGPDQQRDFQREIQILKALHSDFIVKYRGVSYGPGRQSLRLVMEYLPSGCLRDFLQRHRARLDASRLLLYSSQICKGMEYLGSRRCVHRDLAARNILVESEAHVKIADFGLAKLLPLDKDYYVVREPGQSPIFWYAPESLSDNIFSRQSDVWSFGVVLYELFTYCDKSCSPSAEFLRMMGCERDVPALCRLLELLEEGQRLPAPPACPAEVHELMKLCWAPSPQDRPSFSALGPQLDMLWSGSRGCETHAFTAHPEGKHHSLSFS
Briefly: JAK3 Inhibition Assay (Omnia kinase fluorescence peptide substrate assay). The note with it: averaged IC50 ranges; assay of Example D; 10 μM (Km app) or 1 mM ATP, 2.5 nM JAK3.
From the text: as §1, §2, §3, §4, §5, §6
Compounds of Formula I were screened for their ability to inhibit JAK3 using the general enzyme inhibition assay method, in which the assay mixture contained 10 μM (Km app) or 1 mM ATP, 10 μM Omnia® Y7 peptide (Catalog #IVGN KNZ3071C, Invitrogen Corporation, Carlsbad, Calif.) and 2.5 nM JAK3 in a total volume of 20 μL. JAK3 was purchased from Invitrogen Corporation, Carlsbad, Calif. (catalog #IVGN PV4080).

Each structure is given as a SMILES string.

T1 sequence (P23458 whole entry): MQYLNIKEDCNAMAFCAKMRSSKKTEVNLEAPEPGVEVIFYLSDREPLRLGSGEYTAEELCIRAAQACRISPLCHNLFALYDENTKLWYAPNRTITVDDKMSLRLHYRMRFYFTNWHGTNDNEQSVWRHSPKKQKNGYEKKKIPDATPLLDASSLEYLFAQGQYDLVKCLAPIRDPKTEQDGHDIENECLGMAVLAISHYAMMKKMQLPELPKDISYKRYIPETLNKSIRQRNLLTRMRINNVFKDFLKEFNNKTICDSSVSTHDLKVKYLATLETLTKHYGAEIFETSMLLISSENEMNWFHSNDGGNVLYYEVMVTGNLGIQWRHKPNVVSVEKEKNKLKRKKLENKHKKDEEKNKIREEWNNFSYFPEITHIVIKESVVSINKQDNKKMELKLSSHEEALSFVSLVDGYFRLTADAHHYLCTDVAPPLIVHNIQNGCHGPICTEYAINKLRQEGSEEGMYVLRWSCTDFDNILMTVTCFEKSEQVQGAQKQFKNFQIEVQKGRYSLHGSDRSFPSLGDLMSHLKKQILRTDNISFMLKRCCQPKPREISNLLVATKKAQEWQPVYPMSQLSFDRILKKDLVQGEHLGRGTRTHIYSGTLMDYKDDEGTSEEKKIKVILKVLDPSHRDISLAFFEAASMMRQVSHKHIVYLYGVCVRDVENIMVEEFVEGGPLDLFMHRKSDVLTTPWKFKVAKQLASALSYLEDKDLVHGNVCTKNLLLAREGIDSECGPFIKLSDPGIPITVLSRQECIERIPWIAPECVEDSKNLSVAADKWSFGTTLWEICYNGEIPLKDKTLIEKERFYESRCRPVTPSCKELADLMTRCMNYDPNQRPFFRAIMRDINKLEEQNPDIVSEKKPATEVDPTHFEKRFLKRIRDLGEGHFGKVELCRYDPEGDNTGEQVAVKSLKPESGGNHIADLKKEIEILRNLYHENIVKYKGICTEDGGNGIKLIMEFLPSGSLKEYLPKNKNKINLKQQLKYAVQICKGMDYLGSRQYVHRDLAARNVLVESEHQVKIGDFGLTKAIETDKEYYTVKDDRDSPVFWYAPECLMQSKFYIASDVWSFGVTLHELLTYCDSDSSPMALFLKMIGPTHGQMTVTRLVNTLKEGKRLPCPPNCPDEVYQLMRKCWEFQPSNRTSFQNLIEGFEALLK
T2 sequence (O60674 whole entry): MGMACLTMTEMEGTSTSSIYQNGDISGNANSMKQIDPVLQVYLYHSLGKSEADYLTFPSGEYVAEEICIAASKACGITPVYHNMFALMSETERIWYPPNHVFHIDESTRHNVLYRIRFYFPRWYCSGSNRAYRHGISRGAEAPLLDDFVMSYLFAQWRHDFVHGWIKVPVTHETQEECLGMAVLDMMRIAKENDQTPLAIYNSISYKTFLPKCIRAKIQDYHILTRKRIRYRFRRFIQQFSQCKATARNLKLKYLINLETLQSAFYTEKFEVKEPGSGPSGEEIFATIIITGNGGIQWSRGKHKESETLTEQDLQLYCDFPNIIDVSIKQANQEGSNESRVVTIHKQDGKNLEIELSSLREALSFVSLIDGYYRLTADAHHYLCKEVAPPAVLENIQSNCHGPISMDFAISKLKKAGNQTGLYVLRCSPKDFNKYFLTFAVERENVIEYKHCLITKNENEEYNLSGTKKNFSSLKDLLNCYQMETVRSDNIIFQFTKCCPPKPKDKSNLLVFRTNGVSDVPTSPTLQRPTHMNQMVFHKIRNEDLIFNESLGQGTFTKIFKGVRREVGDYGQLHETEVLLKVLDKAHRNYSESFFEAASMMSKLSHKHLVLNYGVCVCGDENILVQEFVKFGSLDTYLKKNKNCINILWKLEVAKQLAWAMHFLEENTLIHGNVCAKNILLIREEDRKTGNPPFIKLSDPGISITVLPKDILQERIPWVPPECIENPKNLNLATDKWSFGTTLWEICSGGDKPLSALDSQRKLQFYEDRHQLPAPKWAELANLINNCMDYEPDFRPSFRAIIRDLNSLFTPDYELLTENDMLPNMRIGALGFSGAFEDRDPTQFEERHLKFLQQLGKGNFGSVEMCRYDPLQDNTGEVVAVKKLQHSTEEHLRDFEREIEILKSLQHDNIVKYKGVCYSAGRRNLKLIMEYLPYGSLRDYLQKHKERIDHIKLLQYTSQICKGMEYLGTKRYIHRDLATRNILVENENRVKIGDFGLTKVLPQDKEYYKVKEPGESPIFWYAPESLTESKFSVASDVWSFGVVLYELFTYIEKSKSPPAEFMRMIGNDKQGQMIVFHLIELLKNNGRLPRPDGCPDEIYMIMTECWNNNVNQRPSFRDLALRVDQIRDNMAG

With `N#CCC(C1CC1)n1cc(-c2nc(-c3cnn(Cc4cccnc4)c3)cc3nccn23)cn1` (stereo not shown) [Example 35, 3-cyclopropyl-3-(4-(7-(1-(pyridin-3-ylmethyl)-1H-pyrazol-4-yl)imidazo[1,2-c]pyrimidin-5-yl)-1H-pyrazol-1-yl)propanenitrile], the IC50 in test [1] was 100 to 1000 nM; in test [2] it was 10 to 100 nM; in test [3] it was less than 10 nM; in test [4] it was 100 to 1000 nM.
With `N#CCC(C1CC1)n1cc(-c2nc(-c3cnn(C4COC4)c3)cc3nccn23)cn1` (stereo not shown) [Example 38, 3-Cyclopropyl-3-(4-(7-(1-(oxetan-3-yl)-1H-pyrazol-4-yl)imidazo[1,2-c]pyrimidin-5-yl)-1H-pyrazol-1-yl)propanenitrile], the IC50 in test [1] is 100 to 1000 nM; in test [2], 10 to 100 nM; in test [3] it was less than 10 nM; in test [4], 100 to 1000 nM.
As for `Cn1cc(-c2cc3ncc(Cl)n3c(-c3cnn(C(CC#N)C4CC4)c3)n2)cn1` (stereo not shown) [Example 25, 3-(4-(3-chloro-7-(1-methyl-1H-pyrazol-4-yl)imidazo[1,2-c]pyrimidin-5-yl)-1H-pyrazol-1-yl)-3-cyclopropylpropanenitrile], the IC50 in test [1] was 10 to 100 nM; in test [2], 10 to 100 nM; in test [3], less than 10 nM; in test [4], 100 to 1000 nM.
For the compound `Cc1c(-c2nc(-c3cnn(C)c3)cc3nccn23)cnn1CCC#N` [Example 107, 3-(5-methyl-4-(7-(1-methyl-1H-pyrazol-4-yl)imidazo[1,2-c]pyrimidin-5-yl)-1H-pyrazol-1-yl)propanenitrile], the IC50 in test [1] is greater than 1000 nM; in test [2] it was greater than 1000 nM; in test [3], 100 to 1000 nM; in test [4] it was greater than 1000 nM.
For the compound `N#CCC1(n2cc(-c3nc(-c4cnn(C5CCC5)c4)cc4nccn34)cn2)CN(CC(F)(F)F)C1` [Example 103, 2-(3-(4-(7-(1-Cyclobutyl-1H-pyrazol-4-yl)imidazo[1,2-c]pyrimidin-5-yl)-1H-pyrazol-1-yl)-1-(2,2,2-trifluoroethyl)azetidin-3-yl)acetonitrile], the half-inhibitory concentration (IC50) in test [1] is 10 to 100 nM; in test [2], 10 to 100 nM; in test [3], less than 10 nM; in test [4] it was 100 to 1000 nM.
As for `Cn1cc(-c2cc3nccn3c(-c3cnn(C(CC#N)c4cccc(C(F)(F)F)c4)c3)n2)cn1` (stereo not shown) [Example 15, 3-(4-(7-(1-methyl-1H-pyrazol-4-yl)imidazo[1,2-c]pyrimidin-5-yl)-1H-pyrazol-1-yl)-3-(3-(trifiuoromethyl)phenyl)propanenitrile], the IC50 was 10 to 100 nM in test [1], 10 to 100 nM in test [2], less than 10 nM in test [3] and 100 to 1000 nM in test [4].
`Cn1cc(-c2cc3nccn3c(-c3cnn(C4(CC#N)COC4)c3)n2)cn1` [Example 24, 2-(3-(4-(7-(1-methyl-1H-pyrazol-4-yl)imidazo[1,2-c]pyrimidin-5-yl)-1H-pyrazol-1-yl)oxetan-3-yl)acetonitrile]: the IC50 in test [1] was 10 to 100 nM; in test [2] it was 10 to 100 nM; in test [3], 10 to 100 nM; in test [4], greater than 1000 nM.
Consider `CN1CCN(c2ccc(-c3cc4nccn4c(-c4cnn(C(CC#N)C5CC5)c4)n3)cn2)CC1` (stereo not shown) [Example 51, 3-cyclopropyl-3-(4-(7-(6-(4-methylpiperazin-1-yl)pyridin-3-yl)imidazo[1,2-c]pyrimidin-5-yl)-1H-pyrazol-1-yl)propanenitrile], for which the IC50 was 100 to 1000 nM in test [1], 10 to 100 nM in test [2], less than 10 nM in test [3] and 100 to 1000 nM in test [4].
Consider `Cn1cc(-c2cc3nccn3c(-c3cnn(C4(CC#N)CN(CC#N)C4)c3)n2)cn1` [Example 73, 2,2′-(3-(4-(7-(1-methyl-1H-pyrazol-4-yl)imidazo[1,2-c]pyrimidin-5-yl)-1H-pyrazol-1-yl)azetidine-1,3-diyl)diacetonitrile], for which the IC50 is 100 to 1000 nM in test [1], 10 to 100 nM in test [2], less than 10 nM in test [3] and greater than 1000 nM in test [4].
Turning to `Cn1cc(-c2cc3nccn3c(-c3cnn(C4(CC#N)CC5(CCCC5)C4)c3)n2)cn1` [Example 161, 2-(2-(4-(7-(1-methyl-1H-pyrazol-4-yl)imidazo[1,2-c]pyrimidin-5-yl)-1H-pyrazol-1-yl)spiro[3.4]octan-2-yl)acetonitrile], the IC50 in test [1] is 100 to 1000 nM; in test [2] it was 10 to 100 nM; in test [3] it was less than 10 nM; in test [4], greater than 1000 nM.
